{
  "source": "patent US7351721B2",
  "about": "“Amino acid derivatives and pharmaceutical composition comprising, as active ingredients, them” (Ono Pharmaceutical Co., Ltd., priority 1999, dated 2008)",
  "target": "T1, N-type calcium channel (Homo sapiens, UniProt Q00975)",
  "T1 construct": "endogenous in cells",
  "T1 sequence (Q00975 whole entry)": "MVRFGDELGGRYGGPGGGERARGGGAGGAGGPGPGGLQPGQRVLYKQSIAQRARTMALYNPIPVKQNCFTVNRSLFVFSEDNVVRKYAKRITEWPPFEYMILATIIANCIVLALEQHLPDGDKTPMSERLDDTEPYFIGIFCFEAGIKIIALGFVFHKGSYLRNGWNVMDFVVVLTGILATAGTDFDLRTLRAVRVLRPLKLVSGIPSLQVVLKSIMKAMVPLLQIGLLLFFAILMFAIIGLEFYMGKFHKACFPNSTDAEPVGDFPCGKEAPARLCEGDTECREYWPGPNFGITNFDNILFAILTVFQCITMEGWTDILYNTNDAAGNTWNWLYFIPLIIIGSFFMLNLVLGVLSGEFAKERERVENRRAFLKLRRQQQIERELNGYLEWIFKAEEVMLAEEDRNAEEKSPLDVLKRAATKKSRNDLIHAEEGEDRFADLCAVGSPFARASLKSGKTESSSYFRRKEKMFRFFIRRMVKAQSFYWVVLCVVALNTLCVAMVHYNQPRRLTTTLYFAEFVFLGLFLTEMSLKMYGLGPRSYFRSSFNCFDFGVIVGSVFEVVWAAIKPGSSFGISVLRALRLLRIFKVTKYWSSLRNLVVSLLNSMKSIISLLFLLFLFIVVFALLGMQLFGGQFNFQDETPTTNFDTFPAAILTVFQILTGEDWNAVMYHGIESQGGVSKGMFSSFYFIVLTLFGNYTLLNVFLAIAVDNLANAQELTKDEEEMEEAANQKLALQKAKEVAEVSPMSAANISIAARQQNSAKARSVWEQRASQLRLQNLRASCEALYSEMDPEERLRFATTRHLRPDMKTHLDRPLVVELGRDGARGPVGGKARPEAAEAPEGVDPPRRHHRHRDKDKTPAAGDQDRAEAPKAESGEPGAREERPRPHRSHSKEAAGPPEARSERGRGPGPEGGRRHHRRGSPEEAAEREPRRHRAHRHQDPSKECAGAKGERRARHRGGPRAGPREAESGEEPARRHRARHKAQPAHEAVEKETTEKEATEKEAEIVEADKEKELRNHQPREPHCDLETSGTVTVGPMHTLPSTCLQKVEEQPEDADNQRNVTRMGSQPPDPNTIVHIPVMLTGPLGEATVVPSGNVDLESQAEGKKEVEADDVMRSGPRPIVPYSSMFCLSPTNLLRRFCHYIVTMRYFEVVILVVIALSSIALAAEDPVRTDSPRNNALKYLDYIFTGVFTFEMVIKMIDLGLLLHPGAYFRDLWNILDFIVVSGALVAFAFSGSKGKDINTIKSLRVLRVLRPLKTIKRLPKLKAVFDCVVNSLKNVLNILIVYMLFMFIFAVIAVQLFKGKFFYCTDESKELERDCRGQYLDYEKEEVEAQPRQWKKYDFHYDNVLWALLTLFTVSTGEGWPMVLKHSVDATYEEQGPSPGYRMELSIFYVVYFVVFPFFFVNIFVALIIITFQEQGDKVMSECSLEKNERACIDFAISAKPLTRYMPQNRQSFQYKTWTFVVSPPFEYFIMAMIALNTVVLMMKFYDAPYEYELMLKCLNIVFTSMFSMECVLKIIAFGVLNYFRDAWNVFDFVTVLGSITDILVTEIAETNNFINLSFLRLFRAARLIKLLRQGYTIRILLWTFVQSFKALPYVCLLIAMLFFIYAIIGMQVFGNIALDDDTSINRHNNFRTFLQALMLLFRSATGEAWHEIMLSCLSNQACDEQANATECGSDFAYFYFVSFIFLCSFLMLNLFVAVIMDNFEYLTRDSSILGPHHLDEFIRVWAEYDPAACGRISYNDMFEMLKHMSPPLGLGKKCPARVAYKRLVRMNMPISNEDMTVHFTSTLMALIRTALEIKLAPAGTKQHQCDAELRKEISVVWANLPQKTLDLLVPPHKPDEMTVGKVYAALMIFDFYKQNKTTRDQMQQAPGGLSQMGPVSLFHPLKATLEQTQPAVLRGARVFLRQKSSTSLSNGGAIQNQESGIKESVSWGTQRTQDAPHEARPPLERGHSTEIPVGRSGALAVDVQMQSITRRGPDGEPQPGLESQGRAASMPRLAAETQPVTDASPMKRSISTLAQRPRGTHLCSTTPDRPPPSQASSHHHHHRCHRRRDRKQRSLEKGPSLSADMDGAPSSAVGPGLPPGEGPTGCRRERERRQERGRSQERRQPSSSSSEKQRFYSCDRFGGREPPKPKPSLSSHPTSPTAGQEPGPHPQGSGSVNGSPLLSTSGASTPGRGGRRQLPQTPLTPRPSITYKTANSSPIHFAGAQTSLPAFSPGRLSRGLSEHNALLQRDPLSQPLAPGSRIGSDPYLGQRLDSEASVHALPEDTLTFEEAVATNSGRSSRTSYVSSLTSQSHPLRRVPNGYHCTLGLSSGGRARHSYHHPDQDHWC",
  "experiment": "Determination of inhibitory activity on N-type calcium channel (Fura-2 fluorescence, KCl depolarization, with nifedipine)",
  "assay_type": "cell-based",
  "conditions": "compound at final concentration of 3 μM; depolarized with 80 mM potassium chloride; in presence of nifedipine; read-out: Inhibitory effect on calcium flow (%)",
  "method": "Determination of Inhibitory Activity on N-type Calcium Channel\nCell line was differentiated according to the method described in FEBS Letters, 235, 178-182, 1988. The cell was loaded with fluorescent reagent, Fura-2·AM (at the final concentration of 10 μM), at 37° C. for 30 minutes and suspended in Krebs-buffer containing HEPES (25 mM) to obtain the cell suspension. The obtained cell suspension was incubated in the presence or absence of the compounds of the present invention with nifedipine for 5 minutes. The cell was depolarized by adding potassium chloride solution (at the final concentration of 80 mM) thereto and then a fluorescence intensity at the emission wavelength of 500 nm excited by the UV of 340 nm and 380 nm alternately was measured using the intracellular calcium analyzer (Nippon Bunko Co., CAF-110). The inhibitory activity of the compound of the present invention (at the final concentration of 3 μM) on calcium influx into the cell was calculated from the difference in changing the fluorescence intensity at peak (ΔR) according to the following equation.",
  "data": [
    {"smiles": "CC(C)(C)OC(=O)N1CSC[C@H]1C(=O)N[C@@H](CSCC1CCCCC1)C(=O)NC1CCN(Cc2ccccc2)CC1", "note": "[compound 2, (2R)-N-(1-benzylpiperidin-4-yl)-3-cyclohexylmethylthio-2-((4R)-3-t-butoxycarbonylthiazolidin-4-ylcarbonylamino)propanamide]", "values": [
      {"measurement": "inhibition at 3 µM", "result": 95, "unit": "%"}
    ]}
  ]
}
